This is an account of results in ChEMBL document CHEMBL1141189, “Preparation and biological evaluation of indole, benzimidazole, and thienopyrrole piperazine carboxamides: potent human histamine h(4) antagonists” (J Med Chem, 2005).

Each structure is given as a SMILES string.

The target in series [1] is T1, Histamine H4 receptor (Homo sapiens, UniProt Q9H3N8). Nature of the series: Antagonistic activity at human histamine H4 receptor in SK-N-MC cells by inhibition of forskolin-stimulated cAMP-mediated reporter gene activity. The conditions noted are these: for Kb: read-out: pA2 (converted). It counts as functional, cell-based. For orientation: A reporter such as luciferase makes a cellular process visible.

Series [2] addresses T1, Histamine H4 receptor. Nature of the series: Displacement of [3H]histamine from recombinant human histamine H4 receptor in SK-N-MC cells. It counts as cell-based. For orientation: Loss of bound radioactivity is the signal in a displacement assay; it reports binding, not function.
The target of another series is Histamine H3 receptor (Homo sapiens, UniProt Q9Y5N1). In words: Binding affinity to histamine H3 receptor.
Series [3] is described as follows: Half life in rat administered with 2 mg/kg, iv. More on the design: dose 2 mg/kg, route intravenous. It counts as ADME, organism-based. The conditions noted are these: in vivo.
The nature of series [4]: In vitro half life in rat S9 fraction. Type of series: ADME, Liver.
Series [5] in a line: In vitro half life in human liver microsomes. It counts as ADME, Microsome. In general terms: Liver microsomes are a subcellular fraction often used to study metabolism.
Series [6] relates to Rattus norvegicus. In words: Maximum concentration in rat administered with 10 mg/kg, po. It counts as ADME, organism-based. Further details: dose 10 mg/kg, route oral. To be noted: in vivo.
A short description of series [7]: Oral bioavailability in rat administered with 10 mg/kg, po. It counts as ADME, organism-based. The conditions noted are these: in vivo.
The nature of series [8]: In vitro half life in human S9 fraction. Type of series: ADME, Liver.
Series [9] is described as follows: In vitro half life in rat liver microsomes. It counts as ADME, Microsome.
Series [10] concerns Rattus norvegicus. Nature of the series: Area under curve in rat administered with 10 mg/kg, po. It counts as ADME, organism-based. Further details: dose 10 mg/kg, route oral. The conditions noted are these: in vivo.
Series [11] in a line: Half life in rat administered with 10 mg/kg, po. Type of series: ADME, organism-based. The conditions noted are these: in vivo. Further details: dose 10 mg/kg, route oral.

T1 sequence (Q9H3N8 whole entry): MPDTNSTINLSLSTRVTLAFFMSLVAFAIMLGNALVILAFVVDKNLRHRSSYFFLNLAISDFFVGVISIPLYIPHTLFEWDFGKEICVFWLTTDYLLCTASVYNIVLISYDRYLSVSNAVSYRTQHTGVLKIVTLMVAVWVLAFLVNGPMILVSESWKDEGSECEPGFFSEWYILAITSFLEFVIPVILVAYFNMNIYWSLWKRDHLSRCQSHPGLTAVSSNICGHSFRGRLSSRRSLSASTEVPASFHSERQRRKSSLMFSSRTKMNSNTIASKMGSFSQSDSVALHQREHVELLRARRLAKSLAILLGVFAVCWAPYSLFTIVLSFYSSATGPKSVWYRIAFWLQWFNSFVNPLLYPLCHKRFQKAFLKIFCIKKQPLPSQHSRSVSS
Histamine H3 receptor, sequence (Q9Y5N1 whole entry): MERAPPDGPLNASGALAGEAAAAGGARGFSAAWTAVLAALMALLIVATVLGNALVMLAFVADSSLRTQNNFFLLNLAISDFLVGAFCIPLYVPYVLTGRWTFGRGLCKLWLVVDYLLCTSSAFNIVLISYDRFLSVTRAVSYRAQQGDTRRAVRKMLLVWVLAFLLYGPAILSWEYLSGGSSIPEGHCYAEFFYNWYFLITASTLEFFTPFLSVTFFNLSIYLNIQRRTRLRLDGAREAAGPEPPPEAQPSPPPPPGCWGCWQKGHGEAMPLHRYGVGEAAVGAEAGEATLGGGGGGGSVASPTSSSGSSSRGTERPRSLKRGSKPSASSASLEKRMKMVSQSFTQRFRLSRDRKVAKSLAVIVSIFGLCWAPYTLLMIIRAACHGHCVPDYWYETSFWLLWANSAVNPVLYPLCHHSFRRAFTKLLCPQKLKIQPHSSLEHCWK

Consider `CN1CCN(C(=O)c2cc3cccc(Cl)c3[nH]2)CC1`, for which the Kb at Histamine H4 receptor [1] was 0.0794 µM. The same measure, in the same setting: the result for `CN1CCN(C(=O)c2cc3c(Br)cccc3[nH]2)CC1` reads 0.158 µM. In general, Ki refers to a dissociation constant, usually derived from enzyme kinetics or from competition with a known ligand. Consider `Cc1c(F)ccc2[nH]c(C(=O)N3CCN(C)CC3)cc12`, for which the inhibition constant Ki on Histamine H4 receptor [2] is 0.027 µM. Further, the Kb on Histamine H4 receptor [1] is 0.02 µM. In the same order, the values of `Cc1cccc2[nH]c(C(=O)N3CCN(C)CC3)nc12` are 0.03 µM and 0.0251 µM. As for `CN1CCN(C(=O)c2cc3cc(O)ccc3[nH]2)CC1`, at Histamine H4 receptor [1], the Kb was 0.0794 µM. As for `CN1CCN(C(=O)c2cc3c(Cl)c(Cl)ccc3[nH]2)CC1`, on Histamine H4 receptor [1], the Kb was 0.00631 µM. Regarding `Cc1c(F)ccc2[nH]c(C(=O)N3CCN(C)CC3)nc12`, the Ki at Histamine H4 receptor [2] came out at 0.007 µM. Further, the Kb at Histamine H4 receptor [1] is 0.0158 µM. Regarding `Cc1csc2cc(C(=O)N3CCN(C)CC3)[nH]c12`, the Kb at Histamine H4 receptor [1] was 0.0316 µM.

On to `CN1CCN(C(=O)c2cc3cc(F)ccc3[nH]2)CC1`, for which, at Histamine H4 receptor [1], the Kb is 0.02 µM. As to `CN1CCN(C(=O)c2cc3sccc3[nH]2)CC1`, the Ki on Histamine H4 receptor [2] turned out to be 0.09 µM. On to `CN1CCN(C(=O)c2nc3c(F)c(F)ccc3[nH]2)CC1`, for which the inhibitory constant (Ki) on Histamine H4 receptor [2] is 0.049 µM. Besides, the Kb on Histamine H4 receptor [1] was 0.0794 µM. For `Cc1cc(Cl)c2[nH]c(C(=O)N3CCN(C)CC3)cc2c1`, in that order: 0.033 µM and 0.0501 µM. In the same order, the values of `CN1CCN(C(=O)c2nc3ccccc3[nH]2)CC1` are 0.035 µM and 0.0631 µM. Regarding `CN1CCN(C(=O)c2cc3cc(C(F)(F)F)ccc3[nH]2)CC1`, the inhibition constant (Ki) on Histamine H4 receptor [2] stood at 0.412 µM.

Regarding `O=C(c1cc2ccccc2[nH]1)N1CCNCC1`, the inhibition constant (Ki) on Histamine H3 receptor was 9 µM. Broadly, the half-life is the time needed for the level to fall by half in the phase considered. High values mean slow loss, low ones fast loss. Usually Cmax stands for the maximum level reached in the sampled fluid or tissue. For the molecule `CN1CCN(C(=O)c2cc3cc(Cl)sc3[nH]2)CC1`, the half-life worked out at 6 min in series [3], 0.783 h in [4] and 0.883 h in series [5]. The Kb at Histamine H4 receptor [1] is 0.0126 µM. For the same molecule, the Cmax in the series with Rattus norvegicus [6] was under 0.1 µM. For the molecule `CN1CCN(C(=O)c2nc3cc(Cl)cc(Cl)c3[nH]2)CC1`, the Ki at Histamine H4 receptor [2] was found to be 0.136 µM.

Turning to `CN1CCN(C(=O)c2nc3cc(F)ccc3[nH]2)CC1`, on Histamine H4 receptor [2], the Ki worked out at 0.019 µM. For the same molecule, at Histamine H4 receptor [1], the Kb is 0.0501 µM. The term bioavailability denotes the share of a dose that reaches the circulation, judged against a reference dose that is usually intravenous. Lower therefore signals poor availability. The molecule `CN1CCN(C(=O)c2cc3cc(Cl)ccc3[nH]2)CC1` [JNJ-7777120] came in with a bioavailability in series [7] of 22%. The half-life was 1.67 h in [8]; 1.07 h in series [4]; 0.075 h in series [9]; 0.467 h in [5]; 2.3 h in series [11]. The AUC with Rattus norvegicus [10] is 7 uM.h/L. In the series with Rattus norvegicus [6], the Cmax was determined as 1.8 µM.

Turning to `Cc1cc(C)c2[nH]c(C(=O)N3CCN(C)CC3)cc2c1`, the Kb at Histamine H4 receptor [1] is 0.0316 µM. Turning to `CN1CCN(C(=O)c2cc3sc(Cl)cc3[nH]2)CC1`, the Kb on Histamine H4 receptor [1] was 0.0501 µM. In the case of `CN1CCN(C(=O)c2cc3cccc(N)c3[nH]2)CC1`, the Kb at Histamine H4 receptor [1] is 0.00794 µM.

On to `CN1CCN(C(=O)c2cc3ccsc3[nH]2)CC1`, for which the Ki on Histamine H4 receptor [2] amounted to 0.09 µM. On to `CN1CCN(C(=O)c2cc3cc(Br)ccc3[nH]2)CC1`, for which the Kb at Histamine H4 receptor [1] was 0.0158 µM. On the same count and under the same terms, the result for `CN1CCN(C(=O)c2cc3cc(F)cc(F)c3[nH]2)CC1` reads 0.02 µM. For the molecule `CN1CCN(C(=O)c2nc3c(N)cccc3[nH]2)CC1`, at Histamine H4 receptor [2], the Ki came out at 0.244 µM.

On to `CN1CCN(C(=O)c2cc3cc(Cl)cc(Cl)c3[nH]2)CC1`, for which, on Histamine H4 receptor [1], the Kb is 0.01 µM. One may read the pA2 as a measure of antagonist potency on a negative log scale. With `Cc1cccc2cc(C(=O)N3CCN(C)CC3)[nH]c12`, on Histamine H4 receptor [1], the pA2 came to 7.9. Take `CN1CCN(C(=O)c2nc3cc(Cl)ccc3[nH]2)CC1`: the figures for the Ki at Histamine H4 receptor [2] and on Histamine H3 receptor were 0.026 µM and 14.1 µM, respectively. The molecule also registered a bioavailability in [7] of 27%. In addition, the Kb on Histamine H4 receptor [1] is 0.02 µM. The half-life was 1.67 h in [8]; 1.47 h in series [4]; 0.2 h in [9]; 1.67 h in series [5]; 1 h in series [11]. For the same molecule, the AUC in the series on Rattus norvegicus [10] was 2.1 uM.h/L. Besides, the Cmax in the series with Rattus norvegicus [6] came out at 1.8 µM.

On to `CN1CCN(C(=O)c2cc3cccc(Br)c3[nH]2)CC1`, for which, on Histamine H4 receptor [1], the Kb was 0.126 µM. Same read-out and setting: with `Cc1c(Cl)sc2cc(C(=O)N3CCN(C)CC3)[nH]c12` the figure was 0.02 µM. `CN1CCN(C(=O)c2nc3cc(C(F)(F)F)ccc3[nH]2)CC1`: the inhibition constant (Ki) on Histamine H4 receptor [2] was 0.427 µM.

For `Cc1ccc2[nH]c(C(=O)N3CCN(C)CC3)cc2c1`, the Kb at Histamine H4 receptor [1] is 0.02 µM. For the molecule `Cc1cc(Cl)c2nc(C(=O)N3CCN(C)CC3)[nH]c2c1`, the Ki on Histamine H4 receptor [2] was determined as 0.023 µM. At Histamine H4 receptor [1], the Kb is 0.126 µM.
